Experimental data as given in ChEMBL document CHEMBL1158290, “Two fungal lanostane derivatives as phospholipase A2 inhibitors” (J Nat Prod, 1996).

Experiments:
[1] = target: Acidic phospholipase A2 2 (Naja naja) (UniProt P15445); conditions: 5.800 mM
Description: Inhibition of snake venom phospholipase A2 at 5.800 mM assessed as oxygen consumption for 3 mins

[2] = target: Acidic phospholipase A2 2 (Naja naja, UniProt P15445); test: Inhibition of snake venom phospholipase A2 assessed as oxygen consumption for 3 mins
[3] = target: Acidic phospholipase A2 2 (Naja naja) (UniProt P15445); test: Inhibition of snake venom phospholipase A2 at 3.700 mM assessed as oxygen consumption for 3 mins
[4] = target: Acidic phospholipase A2 2 (Naja naja) (UniProt P15445); test: Inhibition of snake venom phospholipase A2 at 1 mM assessed as oxygen consumption for 3 mins

Acidic phospholipase A2 2 (Naja naja), sequence (P15445 whole entry): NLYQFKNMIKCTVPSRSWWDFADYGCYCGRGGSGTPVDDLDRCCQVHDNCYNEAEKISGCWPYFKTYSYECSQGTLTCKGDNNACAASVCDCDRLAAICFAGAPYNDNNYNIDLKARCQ
Acidic phospholipase A2 2, sequence (P15445 whole entry): as above

| SMILES | inhibition [1] [%] | IC50 [2] [µM] | inhibition [3] [%] | inhibition [4] [%] |
| --- | --- | --- | --- | --- |
| CCN(CC)CCCC(C)Nc1c2ccc(Cl)cc2nc2ccc(OC)cc12 (stereo unspecified) [QUINACRINE] | 85.5 | 2160 | – | – |
| C=C(CC[C@@H](C(=O)O)[C@H]1[C@H](O)C[C@@]2(C)C3=C(CC[C@]12C)[C@@]1(C)CC[C@H](OC(C)=O)C(C)(C)[C@@H]1CC3)C(C)C [PACHYMIC ACID] | – | 2900 | 66 | – |
| C=C(CC[C@@H](C(=O)O)[C@H]1[C@H](O)C[C@@]2(C)C3=CC[C@H]4C(C)(C)[C@@H](O)CC[C@]4(C)C3=CC[C@]12C)C(C)C [DEHYDROTUMULOSIC ACID] | – | 845 | – | 58.6 |
